Reference: patent publication US9617240B2 (TEIJIN PHARMA LIMITED, priority 2013, dated 2017)

Legend:
[1] = test system: level of uric acid in the blood; experiment: Hypouricemic effect in Cebus apella monkeys; format: in vivo; conditions: gavage, 1 mg/kg
Experimental: To Cebus apella monkeys, test compounds suspended in 0.5% methylcellulose solution were administered by gavage into the stomach through the nasal cavity using a disposable catheter and a syringe. Blood was taken from the saphenous vein at 4 hours and 24 hours after the administration, after which the plasma was separated. The level of uric acid in the blood was measured using a uric acid measurement kit (L type Wako UA F: Wako Pure Chemical Industries, Ltd.) by the uricase method using an absorption spectrometer and the percentage of hypouricemic effect was determined by the following expression: Percentage of hypouricemic effect (%)=(Level of uric acid of the control animal−Level of uric acid of the test compound-administered animal)×100/Level of uric acid of the control animal.

[2] = target: T1, oxidase type xanthine oxidase (derived from buttermilk) (Bos taurus, UniProt P80457); experiment: Xanthine oxidase inhibitory activity (absorbance change at 290 nm); format: biochemical; conditions: xanthine substrate, 100 mM phosphate buffer, absorbance at 290 nm for 5 minutes; read-out: Inhibitory Activity (50% inhibitory concentration with respect to oxidase type xanthine oxidase)
T1 construct: oxidase type xanthine oxidase (derived from buttermilk, supplied by Calbiochem Novabiochem Corp.); purchased Calbiochem Novabiochem Corp; host or cells: buttermilk (natural source)
T1 sequence (P80457 whole entry): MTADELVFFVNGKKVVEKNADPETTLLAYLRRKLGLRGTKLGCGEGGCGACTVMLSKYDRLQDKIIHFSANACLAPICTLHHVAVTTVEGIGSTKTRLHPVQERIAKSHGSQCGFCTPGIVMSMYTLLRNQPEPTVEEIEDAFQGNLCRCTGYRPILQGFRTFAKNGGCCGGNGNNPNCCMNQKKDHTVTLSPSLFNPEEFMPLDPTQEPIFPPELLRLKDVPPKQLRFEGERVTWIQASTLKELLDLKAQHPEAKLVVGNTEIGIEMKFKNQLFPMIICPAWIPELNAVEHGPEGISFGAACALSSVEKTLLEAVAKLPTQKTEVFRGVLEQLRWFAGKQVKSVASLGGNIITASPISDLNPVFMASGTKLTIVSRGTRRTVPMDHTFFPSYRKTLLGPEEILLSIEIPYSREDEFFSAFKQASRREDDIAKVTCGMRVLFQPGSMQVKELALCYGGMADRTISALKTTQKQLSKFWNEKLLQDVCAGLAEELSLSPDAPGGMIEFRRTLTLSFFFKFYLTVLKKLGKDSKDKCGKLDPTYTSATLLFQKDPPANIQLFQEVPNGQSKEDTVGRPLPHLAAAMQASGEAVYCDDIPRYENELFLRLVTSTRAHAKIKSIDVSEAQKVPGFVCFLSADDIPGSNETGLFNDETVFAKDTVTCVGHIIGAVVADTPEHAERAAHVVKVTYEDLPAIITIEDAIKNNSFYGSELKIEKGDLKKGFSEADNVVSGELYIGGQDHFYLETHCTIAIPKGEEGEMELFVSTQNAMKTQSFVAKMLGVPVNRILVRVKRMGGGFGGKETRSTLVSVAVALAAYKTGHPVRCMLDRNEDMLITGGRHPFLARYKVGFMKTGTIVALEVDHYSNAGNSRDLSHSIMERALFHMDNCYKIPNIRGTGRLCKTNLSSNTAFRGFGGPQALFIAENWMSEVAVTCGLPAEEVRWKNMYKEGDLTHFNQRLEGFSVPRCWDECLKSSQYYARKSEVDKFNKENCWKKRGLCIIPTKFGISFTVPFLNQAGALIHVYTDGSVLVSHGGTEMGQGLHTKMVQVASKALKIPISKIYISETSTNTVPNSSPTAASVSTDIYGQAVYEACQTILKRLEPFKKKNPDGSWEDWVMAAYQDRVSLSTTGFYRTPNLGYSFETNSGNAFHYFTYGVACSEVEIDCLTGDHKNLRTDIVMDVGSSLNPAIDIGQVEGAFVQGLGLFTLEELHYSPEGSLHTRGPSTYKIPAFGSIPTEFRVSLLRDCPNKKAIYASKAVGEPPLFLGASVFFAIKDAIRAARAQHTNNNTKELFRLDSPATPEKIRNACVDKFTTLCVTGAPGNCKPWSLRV
Summary of the method: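 Buttermilk xanthine oxidase (stock 30.6 mU/mL) was added to 30 μM xanthine stock in 100 mM phosphate buffer containing test compound (1% DMSO). Absorbance change at 290 nm was followed for 5 minutes. Inhibition was calculated against a DMSO control, and IC50 came from dose-response fitting.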

[3] = test system: level of uric acid in the blood; experiment: Hypouricemic effect in normal rats; format: in vivo, Sprague-Dawley male rats; conditions: oral gavage, 1 mg/kg
Experimental: A test compound suspended in a 0.5% methylcellulose solution was administered to 8 to 9 week-old Sprague-Dawley male rats (Japan Charles River Co.) by oral gavage administration using a feeding needle. After the blood was collected from the tail vein at 6 hours and 24 hours after administration, the plasma was separated. The level of uric acid in the blood sample was measured by uricase method using an absorption spectrometer as well as a uric acid determination kit (L type Wako UA F: Wako Pure Chemical Industries, Ltd.). The percentage of hypouricemic effect was determined by the following expression: Percentage of hypouricemic effect (%)=(Level of uric acid of the control animal−Level of uric acid of the test compound-administered animal)×100/Level of uric acid of the control animal.

[4] = test system: level of uric acid in the plasma; experiment: Hypouricemic effect in beagle dogs; format: in vivo; conditions: oral gavage, 3 mg/kg, 24 hours after administration
Experimental: The hypouricemic effect of the compound (I) in beagle dogs was confirmed. A test compound suspended in a 0.5% methyl cellulose solution was orally administered by gavage to beagle dogs (Kitayama Labes). Blood was drawn from the cephalic vein at 24 hours after administration and plasma was separated. The level of uric acid in the plasma sample was measured using an LC-MS/MS method and the percentage of hypouricemic effect was determined by the following expression: Percentage of hypouricemic effect (%)=(Level of uric acid of the control animal−Level of uric acid of the test compound-administered animal)×100/Level of uric acid of the control animal.

IC50 [2] | Structure (SMILES) | also measured
5 to 10 nM | N#Cc1nc(-n2cc(C(=O)O)cn2)ccc1-c1c(F)cccc1F [Compound 95, 1-[6-cyano-5-(2,6-difluorophenyl)pyridin-2-yl]-1H-pyrazole-4-carboxylic acid] | –
1 to 5 nM | N#Cc1cc(-n2cc(C(=O)O)c(N)n2)ncc1-c1ccccc1 [Compound 97, 3-amino-1-(4-cyano-5-phenylpyridin-2-yl)-1H-pyrazole-4-carboxylic acid] | –
≥ 10 nM | Cc1ccc(F)c(-c2ccc(-n3cc(C(=O)O)cn3)nc2C#N)c1 [Compound 88, 1-[6-cyano-5-(2-fluoro-5-methylphenyl)pyridin-2-yl]-1H-pyrazole-4-carboxylic acid] | –
≥ 10 nM | N#Cc1cc(-n2cc(C(=O)O)cn2)cnc1-c1cccc(F)c1F [Compound 81, 1-[5-cyano-6-(2,3-difluorophenyl)pyridin-3-yl]-1H-pyrazole-4-carboxylic acid] | –
≥ 10 nM | N#Cc1cc(-n2cc(C(=O)O)cn2)cnc1-c1cc(F)ccc1F [Compound 80, 1-[5-cyano-6-(2,5-difluorophenyl)pyridin-3-yl]-1H-pyrazole-4-carboxylic acid] | –

The remaining lines, values behind:

Structure (SMILES) | IC50 [2] | also measured
N#Cc1cc(-n2cc(C(=O)O)cn2)ncc1-c1ccccc1 [Compound 1, 1-(4-cyano-5-phenylpyridin-2-yl)-1H-pyrazole-4-carboxylic acid] | 1 to 5 nM | Percentage of hypouricemic effect ([1]; 4 hours after administration): ≥ 50%; Percentage of hypouricemic effect ([1]; 24 hours after administration): ≥ 50%; Percentage of hypouricemic effect ([3]; 6 hours after administration): ≥ 70%; Percentage of hypouricemic effect ([3]; 24 hours after administration): ≥ 70%; Percentage of hypouricemic effect [4]: ≥ 50%
CCCOc1cccc(-c2cnc(-n3cc(C(=O)O)cn3)cc2C#N)c1 [Compound 31, 1-[4-cyano-5-(3-propoxyphenyl)pyridin-2-yl]-1H-pyrazole-4-carboxylic acid] | 1 to 5 nM | –
Cc1cc(-c2cnc(-n3cc(C(=O)O)cn3)cc2C#N)ccc1F [Compound 37, 1-[4-cyano-5-(4-fluoro-3-methylphenyl)pyridin-2-yl]-1H-pyrazole-4-carboxylic acid] | 1 to 5 nM | –
N#Cc1cc(-n2cc(C(=O)O)cn2)ncc1-c1ccccc1C(F)(F)F [Compound 8, 1-{4-cyano-5-[2-(trifluoromethyl)phenyl]pyridin-2-yl}-1H-pyrazole-4-carboxylic acid] | ≥ 10 nM | –
Cc1cccc(-c2cnc(-n3cc(C(=O)O)cn3)cc2C#N)c1 [Compound 10, 1-[4-cyano-5-(3-methylphenyl)pyridin-2-yl]-1H-pyrazole-4-carboxylic acid] | 1 to 5 nM | –
N#Cc1cc(-n2cc(C(=O)O)cn2)ncc1-c1ccccc1OC(F)(F)F [Compound 9, 1-{4-cyano-5-[2-(trifluoromethoxy)phenyl]pyridin-2-yl]-1H-pyrazole-4-carboxylic acid] | ≥ 10 nM | –
N#Cc1cc(-n2cc(C(=O)O)cn2)ncc1-c1ccc(Oc2ccccc2)cc1 [Compound 54, 1-[4-cyano-5-(4-phenoxyphenyl)pyridin-2-yl]-1H-pyrazole-4-carboxylic acid] | 1 to 5 nM | –
COc1cccc(-c2cnc(-n3cc(C(=O)O)cn3)cc2C#N)c1F [Compound 19, 1-[4-cyano-5-(2-fluoro-3-methoxyphenyl)pyridin-2-yl]-1H-pyrazole-4-carboxylic acid] | 1 to 5 nM | –
CCOc1ccccc1-c1cnc(-n2cc(C(=O)O)cn2)cc1C#N [Compound 3, 1-[4-cyano-5-(2-ethoxyphenyl)pyridin-2-yl]-1H-pyrazole-4-carboxylic acid] | 5 to 10 nM | –
N#Cc1cc(-n2cc(C(=O)O)cn2)ncc1-c1ccc(F)c(Cl)c1 [Compound 40, 1-[4-cyano-5-(3-chloro-4-fluorophenyl)pyridin-2-yl]-1H-pyrazole-4-carboxylic acid] | 5 to 10 nM | –
